Experimental data reported in the supplement of paper PMC4862054.

How the values were obtained:
Conditions in all cases: incubation time: 72 h
DU-4475 [1] = test: normalised viability (% of control), CellTiter-Blue; higher = more viable cells (100 = DMSO, 0 = benzethonium chloride kill control)
Protocol: (§1)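 DSRT, CellTiter-Blue viability, 72 h incubation. Signal is normalised to DMSO and benzethonium chloride controls. Value is the normalised response at dose 1.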

Hs578T [2] = test: as above
Protocol: as §1

HCC1599 [3] = test: as above
Protocol: as §1

MDA-MB-453 [4] = test: as above
Protocol: as §1

CAL-51 [5] = test: as above
Protocol: as §1

MDA-MB-231 [6] = test: as above
Protocol: as §1

MFM-223 [7] = test: as above
Protocol: as §1

BT-474 [8] = test: as above
Protocol: as §1

HCC1937 [9] = test: as above
Protocol: as §1

MDA-MB-436 [10] = test: as above
Protocol: as §1

SK-BR-3 [11] = test: as above
Protocol: as §1

MDA-MB-468 [12] = test: as above
Protocol: as §1

HDQ-P1 [13] = test: as above
Protocol: as §1

CAL-85-1 [14] = test: as above
Protocol: as §1

HCC1143 [15] = test: as above
Protocol: as §1

CAL-120 [16] = test: as above
Protocol: as §1

BT-549 [17] = test: as above
Protocol: as §1

CAL-148 [18] = test: as above
Protocol: as §1

DU-4475 [19] = test: normalised response (% of control), CellTiter-Glo; higher = more viable cells (100 = DMSO, 0 = benzethonium chloride kill control)
How it was run: (§2)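 Compound was dispensed into 384-well plates at 5 concentrations in 10-fold steps spanning a 10,000-fold range specific to that compound. Breast cancer cell lines were added as 20 µl suspension and left for 72 h before CellTox Green fluorescence (485/520 nm) and then CellTiter-Glo luminescence, read after 10 min at room temperature. Each reported value is the normalised signal at one concentration, with 0.1 % DMSO set at 100 and a positive kill control at 0 on each plate.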

Hs578T [20] = test: as above
How it was run: as §2

HCC1599 [21] = test: as above
How it was run: as §2

MDA-MB-453 [22] = test: as above
How it was run: as §2

CAL-51 [23] = test: as above
How it was run: as §2

MDA-MB-231 [24] = test: as above
How it was run: as §2

MFM-223 [25] = test: as above
How it was run: as §2

MCF-10A = test: as above
How it was run: as §2

BT-474 [26] = test: as above
How it was run: as §2

HCC1937 [27] = test: as above
How it was run: as §2

MDA-MB-436 [28] = test: as above
How it was run: as §2

SK-BR-3 [29] = test: as above
How it was run: as §2

MDA-MB-468 [30] = test: as above
How it was run: as §2

HDQ-P1 [31] = test: as above
How it was run: as §2

CAL-85-1 [32] = test: as above
How it was run: as §2

HCC1143 [33] = test: as above
How it was run: as §2

CAL-120 [34] = test: as above
How it was run: as §2

BT-549 [35] = test: as above
How it was run: as §2

CAL-148 [36] = test: as above
How it was run: as §2

Compound	normalised viability (DU-4475 [1])	normalised viability (Hs578T [2])	normalised viability (HCC1599 [3])	normalised viability (MDA-MB-453 [4])	normalised viability (CAL-51 [5])	normalised viability (MDA-MB-231 [6])	normalised viability (MFM-223 [7])	normalised viability (BT-474 [8])	normalised viability (HCC1937 [9])	normalised viability (MDA-MB-436 [10])	normalised viability (SK-BR-3 [11])	normalised viability (MDA-MB-468 [12])	normalised viability (HDQ-P1 [13])	normalised viability (CAL-85-1 [14])	normalised viability (HCC1143 [15])	normalised viability (CAL-120 [16])	normalised viability (BT-549 [17])	normalised viability (CAL-148 [18])	normalised response (DU-4475 [19])	normalised response (Hs578T [20])	normalised response (HCC1599 [21])	normalised response (MDA-MB-453 [22])	normalised response (CAL-51 [23])	normalised response (MDA-MB-231 [24])	normalised response (MFM-223 [25])	normalised response (MCF-10A)	normalised response (BT-474 [26])	normalised response (HCC1937 [27])	normalised response (MDA-MB-436 [28])	normalised response (SK-BR-3 [29])	normalised response (MDA-MB-468 [30])	normalised response (HDQ-P1 [31])	normalised response (CAL-85-1 [32])	normalised response (HCC1143 [33])	normalised response (CAL-120 [34])	normalised response (BT-549 [35])	normalised response (CAL-148 [36])
O=NN(CCCl)C(=O)NCCCl [Carmustine] (1 nM)	120%	134%	97%	108%	107%	133%	93.5%	87.5%	88.8%	75.7%	99.8%	106%	111%	87.8%	90.5%	94.2%	103%	115%	103%	100%	103%	109%	87.1%	98.2%	94.2%	87.3%	97%	97.6%	80%	90.5%	98.1%	99.3%	94.4%	97.8%	100%	97.1%	89.3%
CC1=C2C[C@H]3[C@@H](CC=C4C[C@@H](O)CC[C@@]43C)[C@@H]2CC[C@]12O[C@@H]1C[C@H](C)CN[C@H]1[C@H]2C [Cyclopamine] (1 nM)	120%	121%	96.5%	102%	109%	100%	97.5%	118%	109%	126%	97.3%	103%	135%	94.5%	97.4%	94%	111%	117%	106%	103%	98.1%	111%	107%	103%	103%	108%	103%	106%	106%	115%	101%	103%	100%	103%	107%	104%	123%
CC1(C)CNc2cc(NC(=O)c3cccnc3NCc3ccncc3)ccc21 [Motesanib] (1 nM)	94.1%	103%	84.8%	85%	110%	76.7%	77.8%	96.6%	93.4%	71.3%	82.2%	87.1%	84.2%	75.9%	86.3%	79.6%	103%	96.5%	99.9%	96.9%	91.5%	103%	107%	97.1%	101%	91.8%	91.2%	93.1%	94.8%	92.1%	103%	93.5%	96%	99%	94%	99.7%	89.4%
CC[C@@H]1C(=O)OC[C@@H]1Cc1cncn1C [Pilocarpine] (4 nM)	99.7%	92.9%	85.4%	99.1%	108%	97.1%	88.8%	74.9%	94.3%	113%	91.8%	104%	133%	96.3%	97.6%	100%	103%	108%	100%	103%	76.7%	111%	123%	96.1%	101%	94.6%	91.7%	92.8%	79.3%	99.2%	98.4%	95.7%	95%	93.7%	94%	101%	96.4%
CC(C)(C)c1cnc(CSc2cnc(NC(=O)C3CCNCC3)s2)o1 [SNS-032] (1 nM)	99%	104%	101%	103%	113%	97.7%	93.1%	101%	103%	113%	101%	104%	102%	92.7%	85.9%	86.2%	113%	113%	98.2%	97.6%	96.3%	99.2%	86.2%	97.5%	92%	95.5%	92.2%	90.8%	84.1%	90.8%	92%	95%	105%	97.3%	91.2%	101%	92.2%
Cn1cnc2c(F)c(Nc3ccc(Br)cc3Cl)c(C(=O)NOCCO)cc21 [Selumetinib] (1 nM)	102%	107%	98.5%	109%	113%	89%	83.6%	104%	100%	97.6%	94%	101%	107%	90.1%	90.6%	81%	102%	107%	95.5%	99%	93.2%	111%	99.8%	97%	94.9%	81.2%	84.7%	89.5%	80.8%	96.5%	93.8%	91.4%	104%	89.6%	93.3%	103%	87.8%
Nc1nc2[nH]cnc2c(=S)[nH]1 [Thioguanine] (1 nM)	105%	136%	110%	104%	104%	92.8%	98.4%	100%	90.2%	101%	99.9%	104%	111%	98.1%	95.3%	97.5%	98.8%	107%	96.7%	101%	105%	98.1%	77.6%	96.2%	94.1%	101%	98.1%	92.8%	94%	94.2%	94.5%	98.4%	92.8%	98.9%	93.3%	104%	95.3%
